Reference: ChEMBL document CHEMBL1153574, “Novel topoisomerase I-targeting antitumor agents synthesized from the N,N,N-trimethylammonium derivative of ARC-111, 5H-2,3-dimethoxy-8,9-methylenedioxy-5-[(2-N,N,N-trimethylammonium)ethyl]dibenzo[c,h][1,6]naphthyridin-6-one iodide” (Eur J Med Chem, 2009)

Key:
[1] = Cytotoxicity against human KB3-1 cells after 4 days after MTT assay; type: functional, cell-based; conditions: KB 3-1, 96 h
[2] = Cytotoxicity against human RPMI8402 cells after 4 days by MTT assay; type: functional, cell-based; conditions: RPMI 8402, 96 h
P388 = test: Cytotoxicity against mouse P388 cells after 4 days by MTT assay; type: functional, cell-based; conditions: P388, 96 h
[3] = Cytotoxicity against human CPT-K5 cells after 4 days by MTT assay; type: functional, cell-based; conditions: CPT-K5, 96 h
[4] = target: T1, DNA topoisomerase 1 (Homo sapiens) (UniProt P11387); test: Effect on human topoisomerase 1 expressed in Sf9 insect cells assessed as effective concentration required for 10% cleavage of plasmid DNA relative to topotecan
T1 sequence (whole entry): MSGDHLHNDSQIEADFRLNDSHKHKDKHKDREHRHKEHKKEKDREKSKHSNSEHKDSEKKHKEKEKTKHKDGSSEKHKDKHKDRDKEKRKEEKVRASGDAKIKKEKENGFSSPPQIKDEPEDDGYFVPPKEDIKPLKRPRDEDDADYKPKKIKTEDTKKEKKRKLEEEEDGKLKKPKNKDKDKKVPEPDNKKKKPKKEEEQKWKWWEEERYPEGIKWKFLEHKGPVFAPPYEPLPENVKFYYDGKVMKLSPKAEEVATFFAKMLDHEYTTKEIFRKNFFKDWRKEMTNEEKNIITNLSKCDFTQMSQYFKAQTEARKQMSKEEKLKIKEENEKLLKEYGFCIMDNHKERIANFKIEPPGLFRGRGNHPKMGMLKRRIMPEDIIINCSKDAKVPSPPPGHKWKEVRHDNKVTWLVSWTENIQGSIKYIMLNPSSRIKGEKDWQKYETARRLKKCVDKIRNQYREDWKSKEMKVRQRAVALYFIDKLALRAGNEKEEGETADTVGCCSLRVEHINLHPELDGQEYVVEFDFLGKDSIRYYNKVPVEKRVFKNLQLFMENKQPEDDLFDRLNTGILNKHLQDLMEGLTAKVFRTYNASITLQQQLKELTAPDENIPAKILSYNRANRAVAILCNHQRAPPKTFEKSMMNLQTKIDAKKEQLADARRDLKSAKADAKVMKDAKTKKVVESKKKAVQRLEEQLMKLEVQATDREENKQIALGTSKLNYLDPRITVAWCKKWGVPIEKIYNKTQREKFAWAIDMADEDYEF

[5] = Cytotoxicity against multidrug resistant human KBV1 cells overexpressing MDR1 after 4 days by MTT assay; type: functional, cell-based; conditions: KB-V1, 96 h
[6] = Cytotoxicity against mouse P388/CPT45 cells after 4 days by MTT assay; type: functional, cell-based; conditions: P388CPT45, 96 h
[7] = Cytotoxicity against multidrug resistant human KBH5.0 cells overexpressing BCRP after 4 days by MTT assay; type: functional, cell-based; conditions: KBH5.0 cell, 96 h

| SMILES | IC50 [1] | IC50 [2] | IC50 (P388) | IC50 [3] | Activity [4] | IC50 [5] | IC50 [6] | IC50 [7] |
| --- | --- | --- | --- | --- | --- | --- | --- | --- |
| COc1cc2c(=O)n(CCn3ccnn3)c3c4cc5c(cc4ncc3c2cc1OC)OCO5 | 700 nM | 3500 nM | 4400 nM | > 10000 nM | > 10 | 10000 nM | > 10000 nM | 6000 nM |
| COc1cc2c(=O)n(CCN(C)CCN(C)C)c3c4cc5c(cc4ncc3c2cc1OC)OCO5 | 50 nM | 45 nM | 35 nM | 2200 nM | 0.7 | 600 nM | 70 nM | 210 nM |
| COc1cc2c(=O)n(CCN(C)C)c3c4cc5c(cc4ncc3c2cc1OC)OCO5 | 5 nM |  |  |  | 0.3 | 5 nM |  |  |
| COc1cc2c(=O)n(CCNCCN(C)C)c3c4cc5c(cc4ncc3c2cc1OC)OCO5 | 60 nM | 140 nM | 75 nM | 2600 nM | 6.4 | 3400 nM | 340 nM | 750 nM |
| CCN(CC)CCNCCn1c(=O)c2cc(OC)c(OC)cc2c2cnc3cc4c(cc3c21)OCO4 | 40 nM | 150 nM | 230 nM | 9000 nM | 5.2 | 1200 nM | 350 nM | 300 nM |
| COc1cc2c(=O)n(CCOC(=O)CN(C)C)c3c4cc5c(cc4ncc3c2cc1OC)OCO5 | 32 nM | 30 nM | 27 nM | 4600 nM | 0.3 | 35 nM | 390 nM | 50 nM |
| COc1cc2c(=O)n(CCNC3CC3)c3c4cc5c(cc4ncc3c2cc1OC)OCO5 | 4 nM | 10 nM | 9 nM | 300 nM | 0.3 | 40 nM | 110 nM | 8 nM |
| COc1cc2c(=O)n(CCn3ccnc3)c3c4cc5c(cc4ncc3c2cc1OC)OCO5 | 150 nM | 210 nM | 200 nM | > 10000 nM | 2.3 | 1800 nM | > 10000 nM | 580 nM |
| COc1cc2c(=O)n(CCN(C)CCO)c3c4cc5c(cc4ncc3c2cc1OC)OCO5 | 6 nM | 15 nM | 12 nM | 580 nM | 0.04 | 60 nM | 330 nM | 50 nM |
| COc1cc2c(=O)n(CCNC(CO)CO)c3c4cc5c(cc4ncc3c2cc1OC)OCO5 | 26 nM | 54 nM | 80 nM | > 10000 nM | 0.2 | 2000 nM |  | 750 nM |
| CC[C@@]1(O)C(=O)OCc2c1cc1n(c2=O)Cc2cc3ccccc3nc2-1 |  |  |  |  | 0.2 |  |  |  |
| COc1cc2c(=O)n(CCNC(CO)(CO)CO)c3c4cc5c(cc4ncc3c2cc1OC)OCO5 | 250 nM | 330 nM | 330 nM | 7000 nM | 2 | 1800 nM | 3500 nM | 1800 nM |
| COc1cc2c(=O)n(CCO)c3c4cc5c(cc4ncc3c2cc1OC)OCO5 | 27 nM | 30 nM | 30 nM | > 10000 nM | 4.7 | 40 nM | 900 nM | 40 nM |
| COc1cc2c(=O)n(CCN(CCO)CCO)c3c4cc5c(cc4ncc3c2cc1OC)OCO5 | 23 nM | 40 nM | 30 nM | 320 nM | 0.48 | 350 nM | 250 nM | 280 nM |
